Assay results published in patent publication US11912723B2, “KRAS modulators and uses thereof” (Quanta Therapeutics, Inc., priority 2022, dated 2024).

Experiments:
[1] = tested on: AGS (KRAS G12D) cells, phospho-ERK; assay: pERK In Cell Western (ICW) assay (Method B); format: cell-based; conditions: Homo sapiens, 3 hours
In short: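 AGS cells seeded at 5,000/well, grown overnight, then treated 3 h at 37 °C with ½-log 10-point dilutions (top 10 μM). Fixed cells stained for phospho-ERK, normalized to DRAQ5 DNA signal and to DMSO control; IC50 from 4-parameter variable-slope fit.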

wtKRAS/RAF1 = biological target: T1, wtKRAS/RAF1 (Homo sapiens, UniProt P01116); assay: Protein-protein interaction (PPI) HTRF assay w.t.KRAS/RAF1; format: binding
T1 construct: KRAS (1-169) proteins were expressed in E. coli at 18° C; His6-MBP (N, cleaved yes); made in house; host or cells: E. coli
Method: (§1) Biotinylated KRAS wt and KRAS G12DNV proteins were expressed and purified in conditions similar to those previously reported (Tran, et al., 2021) (Zhang, et al., 2020). Briefly, KRAS (1-169) proteins were expressed in E. coli at 18° C. with an upstream TEV cleavage site (ENLFYQS) followed an Avi tag sequence ([…]). KIRAS expression constructs contained both a His6 and maltose-binding protein (MBP) tags at the N-terminus for Ni-NTA column purification prior to overnight TEV cleavage and MBP column purification. The avi-tagged NRAS expression construct contained both a His6 tag and SUMO cleavage sige at the N-terminus for Ni-NTA column purification followed by His-ULP1 digestion overnight. All avi-tagged RAS proteins were dialyzed into buffer containing ATP, biotin, and BirA followed by purification over a second Ni-NTA column and then run over a size exclusion HiLoad™ 26/600 Superdex™ column in 20 mM HEPES, pH 7.5, 300 mM NaCl, 5 mM MgCl2, and 1 mM TCEP. Fractions containing the protein of interest were pooled, concentrated, and confirmed by intact mass spectrometry. To prepare ‘GTP’ loaded KRAS and NRAS, biotinylated KRAS or NRAS was nucleotide exchanged from GDP-bound protein to GppNHp-bound (Jena Biosciences, NU-401-50) protein in the presence of alkaline phosphatase and excess GppNHp as previously described and the resulting nucleotide content was confirmed by HPLC reverse phase analytical chromatography (Donohue, et al., 2019) (Tran, et al., 2021).
(§2) His-tagged RAF1 (52-131) was similarly expressed in E. coli at 18° C. overnight with an upstream TEV cleavage site. His-tagged RAF1 expression construct contained both a His6 and MBP tags at the N-terminus for Ni-NTA column purification followed by MBP-tagged TEV digestion overnight. RAF1 protein samples were further purified over a MBP column followed by a Ni-NTA column and a second MBP column. The fractions containing the protein of interest were pooled, concentrated, and further purified over a HiLoad™ 16/600 Superdex™ 75 pg size exclusion column into 20 mM HEPES, pH8.0, 200 mM NaCl, 5 mM TCEP.
(§3) When RAS proteins are in the active GTP-bound conformation, they bind the effector protein RAF1 at the N-terminus Ras-binding domain (RBD, residues 52-131) (Tran, et al., 2021). Homogenous time resolved fluorescence (HTRF) was used to monitor the interaction between wt or mutant KRAS and RAF1 or wt NRAS and RAFT. Compounds were assayed in the presence of KRAS G12D/V and RAF1 versus wt KRAS to assess activity against mutant and w.t. KRAS. Similarly, compounds were then assayed in the presence of w.t. NRAS and RAF1 to assess RAS isoform selectivity. In all assay formats, His-tagged RAF1 protein was incubated with the HTRF donor, anti-6His Tb Cryptate gold (Cisbio 61DB10RDF), and biotinylated RAS proteins were incubated with the HTRF acceptor, streptavidin-d2 (CisBio 610SADLA). The intensity of the fluorescence signal emitted is proportional to binding between the two proteins. The donor solution was prepared by mixing 16 nM His-tagged RAF1 in protein dilution buffer with 1:100 anti-6His Tb cryptate in PPI-Terbium detection buffer. 16 nM biotinylated RAS protein was diluted into protein dilution buffer (50 mM Tris-HCl pH 7.5, 150 mM NaCl, 0.1 mM MgCl2, 1 mM TCEP, 0.005% Tween20) and mixed with 1:2000 Streptavidin-d2 diluted in PPI-Terbium detection buffer (CisBio 61DB10RDF). 50× compound in DMSO was mixed with 16 nM KRAS-acceptor solution and incubated for 30 minutes at room temperature. After compound pre-incubation with KRAS, the RAF1 donor solution was added to the KRAS-acceptor solution and incubated for 1 hour at room temperature. The fluorescence signal emitted was monitored at 665 nm and 615 nm using an Envision multimode plate reader. The HTRF ratio (665/615) was calculated and normalized to 0% inhibition in the absence of compound and 100% inhibition in the presence of untagged RAF1 protein. […]

KRAS G12V/RAF1 = biological target: T2, KRAS G12V/RAF1 (Homo sapiens, UniProt P01116, G12V); assay: Protein-protein interaction (PPI) HTRF assay KRAS G12V/RAF1; format: binding; conditions: KRASG12V/RAF1
T2 construct: KRAS (1-169) proteins were expressed in E. coli at 18° C; His6-MBP (N, cleaved yes); made in house; host or cells: E. coli
Method: as §1, §2, §3

T2 sequence (P01116 1-169 isoform P01116-2 G12V): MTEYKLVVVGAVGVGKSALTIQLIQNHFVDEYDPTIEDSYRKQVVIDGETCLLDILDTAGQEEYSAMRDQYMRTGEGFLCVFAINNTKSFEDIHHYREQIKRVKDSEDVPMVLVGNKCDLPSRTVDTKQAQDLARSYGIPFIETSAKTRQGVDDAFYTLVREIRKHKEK
T1 sequence (P01116 1-169 isoform P01116-2): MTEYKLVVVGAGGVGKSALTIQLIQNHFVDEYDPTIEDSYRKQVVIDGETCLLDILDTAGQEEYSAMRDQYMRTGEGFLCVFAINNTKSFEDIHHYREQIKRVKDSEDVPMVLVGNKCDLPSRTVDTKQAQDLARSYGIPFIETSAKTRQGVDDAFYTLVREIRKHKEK

| Structure (SMILES) | IC50 [1] [µM] | IC50 (wtKRAS/RAF1) [µM] | IC50 (KRAS G12V/RAF1) [µM] |
| --- | --- | --- | --- |
| CN(C)C(=O)c1nn2c(c1Cl)CN(c1nc(OC[C@@]34CCCN3C[C@H](F)C4)nc3c1CN(C)[C@@]1(CCc4ccccc41)C3)CCC2 [Compound 53, 3-chloro-5-[(7S)-2-[[(2R,8S)-2-fluoro-1,2,3,5,6,7-hexahydropyrrolizin-8-yl]methoxy]-6-methyl-spiro[5,8-dihydropyrido[4,3-d]pyrimidine-7,1′-indane]-4-yl]-N,N-dimethyl-4,6,7,8-tetrahydropyrazolo[1,5-a][1,4]diazepine-2-carboxamide] | 0.01 to 0.1 | 10 to 100 | 10 to 100 |
| CN(C)C(=O)c1nn2c(c1Cl)CN(c1nc(OC[C@@]34CCCN3C[C@H](F)C4)nc3c1CN(C)[C@@]1(CCCc4ccccc41)C3)CCC2 [Compound 64, 3-chloro-5-[(7S)-2-[[(2R,8S)-2-fluoro-1,2,3,5,6,7-hexahydropyrrolizin-8-yl]methoxy]-6-methyl-spiro[5,8-dihydropyrido[4,3-d]pyrimidine-7,1′-tetralin]-4-yl]-N,N-dimethyl-4,6,7,8-tetrahydropyrazolo[1,5-a][1,4]diazepine-2-carboxamide] | 0.01 to 0.1 |  | 10 to 100 |
| C#Cc1c(C(=O)N(C)C)nn2c1CN(c1nc(OC[C@@]34CCCN3C[C@H](F)C4)nc3c1CN(C)[C@@]1(CCCc4ccccc41)C3)CCC2 [Compound 81, 3-ethynyl-5-[(7S)-2-[[(2R,8S)-2-fluoro-1,2,3,5,6,7-hexahydropyrrolizin-8-yl]methoxy]-6-methyl-spiro[5,8-dihydropyrido[4,3-d]pyrimidine-7,1′-tetralin]-4-yl]-N,N-dimethyl-4,6,7,8-tetrahydropyrazolo[1,5-a][1,4]diazepine-2-carboxamide] | 0.01 to 0.1 | 10 to 100 | 10 to 100 |
| Cc1nnc(-c2nn3c(c2Cl)CN(c2nc(OC[C@@]45CCCN4C[C@H](F)C5)nc4c2CN(C)[C@@]2(CCCc5ccccc52)C4)CCC3)n1C [Compound 90, (7S)-4-[3-chloro-2-(4,5-dimethyl-1,2,4-triazol-3-yl)-4,6,7,8-tetrahydropyrazolo[1,5-a][1,4]diazepin-5-yl]-2-[[(2R,8S)-2-fluoro-1,2,3,5,6,7-hexahydropyrrolizin-8-yl]methoxy]-6-methyl-spiro[5,8-dihydropyrido[4,3-d]pyrimidine-7,1′-tetralin]] | 0.01 to 0.1 | > 100 | 10 to 100 |
| CN(C)C(=O)c1nn2c(c1Cl)CN(c1nc(OC[C@@]34CCCN3C[C@H](F)C4)nc3c1CN(C)[C@@]1(CCc4cccc(O)c41)C3)CCC2 [Compound 96, 3-chloro-5-[(7S)-2-[[(2R,8S)-2-fluoro-1,2,3,5,6,7-hexahydropyrrolizin-8-yl]methoxy]-7′-hydroxy-6-methyl-spiro[5,8-dihydropyrido[4,3-d]pyrimidine-7,1′-indane]-4-yl]-N,N-dimethyl-4,6,7,8-tetrahydropyrazolo[1,5-a][1,4]diazepine-2-carboxamide] | 0.01 to 0.1 | > 100 | 10 to 100 |
